For 23 compounds, inhibition and IC50 results are on record in patent US6262084A, “Compounds that inhibit the binding of integrins to their receptors” (Texas Biotechnology Corporation, priority 1999, dated 2001).

Some results are limits rather than exact numbers.

The test deals with T1, α4β1 integrin (Homo sapiens, UniProt P05556+P13612).
T1 construct: Ramos cells fluorescently labeled with calcein; endogenous in cells; host or cells: Ramos cells
Nature of the test: Inhibition of adhesion of calcein-labeled Ramos cells to CS1 (fibronectin) peptide-conjugated ovalbumin. The format is cell-based. The following applies: for inhibition at 100 µM: Ramos, compound at a concentration of 100 μM, read-out: % A (percent inhibition of cell adhesion); for IC50: dose required to give 50% inhibition, Ramos cell adhesion to CS1-ovalbumin, 30 minutes at 37° C. The method in brief:
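Calcein-labelled Ramos cells (2.5×10^5/well) in TBS with 1 mM MgCl2, CaCl2 and MnCl2 adhered to CS1 peptide–ovalbumin coated at 5 μg/ml for 30 min at 37 °C, with or without compound. After washing, bound cells were lysed and read by fluorescence. IC50 is the dose giving 50% inhibition, and % inhibition was measured at 100 μM.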

T1 sequence (P13612 34-1032): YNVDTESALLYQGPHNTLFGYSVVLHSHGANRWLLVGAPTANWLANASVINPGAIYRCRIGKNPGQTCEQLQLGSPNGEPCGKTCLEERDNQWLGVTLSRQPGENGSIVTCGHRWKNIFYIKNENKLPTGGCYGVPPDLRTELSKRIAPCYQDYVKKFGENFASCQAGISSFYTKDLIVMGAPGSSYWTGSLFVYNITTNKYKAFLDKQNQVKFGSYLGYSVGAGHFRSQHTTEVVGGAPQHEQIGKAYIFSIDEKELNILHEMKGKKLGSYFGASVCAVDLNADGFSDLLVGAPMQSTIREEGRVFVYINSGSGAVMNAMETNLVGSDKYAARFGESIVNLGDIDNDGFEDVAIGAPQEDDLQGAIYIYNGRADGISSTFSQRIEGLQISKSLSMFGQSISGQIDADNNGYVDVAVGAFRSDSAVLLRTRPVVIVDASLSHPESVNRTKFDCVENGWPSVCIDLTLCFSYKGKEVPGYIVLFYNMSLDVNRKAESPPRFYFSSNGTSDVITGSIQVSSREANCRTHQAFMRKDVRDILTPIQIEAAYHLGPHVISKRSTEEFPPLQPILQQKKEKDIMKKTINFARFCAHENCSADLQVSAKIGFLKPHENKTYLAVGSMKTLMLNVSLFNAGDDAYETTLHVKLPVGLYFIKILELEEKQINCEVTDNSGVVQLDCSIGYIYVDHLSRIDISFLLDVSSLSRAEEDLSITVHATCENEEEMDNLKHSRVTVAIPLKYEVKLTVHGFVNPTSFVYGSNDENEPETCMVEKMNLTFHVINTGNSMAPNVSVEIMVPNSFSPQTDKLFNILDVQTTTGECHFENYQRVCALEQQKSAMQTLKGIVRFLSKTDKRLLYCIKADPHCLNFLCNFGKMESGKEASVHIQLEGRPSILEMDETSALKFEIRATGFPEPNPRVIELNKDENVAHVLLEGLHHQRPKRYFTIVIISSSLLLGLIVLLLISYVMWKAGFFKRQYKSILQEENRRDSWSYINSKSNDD
T1 sequence (P05556 21-798): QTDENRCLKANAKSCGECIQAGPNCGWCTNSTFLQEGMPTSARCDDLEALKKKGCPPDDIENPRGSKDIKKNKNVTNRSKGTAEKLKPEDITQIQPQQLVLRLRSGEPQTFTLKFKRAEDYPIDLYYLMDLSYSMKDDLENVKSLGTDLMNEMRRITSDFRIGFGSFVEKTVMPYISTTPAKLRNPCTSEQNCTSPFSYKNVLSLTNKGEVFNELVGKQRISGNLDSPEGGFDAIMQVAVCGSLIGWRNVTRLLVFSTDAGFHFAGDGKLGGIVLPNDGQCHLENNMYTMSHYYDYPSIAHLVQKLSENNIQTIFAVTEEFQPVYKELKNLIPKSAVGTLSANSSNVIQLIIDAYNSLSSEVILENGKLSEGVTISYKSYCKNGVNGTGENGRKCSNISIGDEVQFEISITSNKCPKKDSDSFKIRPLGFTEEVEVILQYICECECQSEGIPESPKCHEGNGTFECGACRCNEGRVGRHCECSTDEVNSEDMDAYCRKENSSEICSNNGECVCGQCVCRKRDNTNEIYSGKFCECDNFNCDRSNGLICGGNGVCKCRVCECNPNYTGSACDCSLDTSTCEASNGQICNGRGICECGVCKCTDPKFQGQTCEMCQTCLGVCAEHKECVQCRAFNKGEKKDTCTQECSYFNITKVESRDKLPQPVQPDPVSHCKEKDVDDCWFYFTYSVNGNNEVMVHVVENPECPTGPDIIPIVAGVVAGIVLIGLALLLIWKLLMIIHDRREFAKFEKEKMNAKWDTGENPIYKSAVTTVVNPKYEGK

The inhibition is how much of the control response was suppressed. A word on the IC50: it is the concentration that gives 50% inhibition. In the case of `COC(=O)NCCCC[C@@H](CSc1ccccc1)NC(=O)N[C@@H](CC(=O)O)c1ccc2c(c1)OCO2` [(9S,13S)-13-(1,3-benzodioxol-5-yl)-3,11-dioxo-9-[(phenylsulfanyl)methyl]-2-oxa-4,10,12-triazapentadecan-15-oic acid], for the setting “Table 1”, the inhibition at 100 µM was 100% and the IC50 is 0.4 µM.

Regarding `COC(=O)NCCCC[C@@H](CS(=O)(=O)c1ccccc1)NC(=O)N[C@@H](CC(=O)O)c1ccc2c(c1)OCO2` [(9S,13S)-13-(1,3-benzodioxol-5-yl)-3,11-dioxo-9-[(phenylsulfonyl)methyl]-2-oxa-4,10,12-triazapentadecan-15-oic acid], where the note is “Table 1”, the inhibition at 100 µM was 20% and the IC50 was greater than 100 µM.

For `COC(=O)NCCCC[C@H](NC(=O)N[C@@H](CC(=O)O)c1ccc2c(c1)OCO2)C(=O)NCC1CCNCC1` [(9S,13S)-13-(1,3-benzodioxol-5-yl)-3,11-dioxo-9-{[(4-piperidinylmethyl)amino]carbonyl}-2-oxa-4,10,12-triazapentadecan-15-oic acid], for the setting “Table 1”, the inhibition at 100 µM was 97% and the 50% inhibitory concentration (IC50) was 5 µM.

With `Cc1ccccc1CNc1ccc(CNC(=O)[C@H](CCCCNC(=O)OCc2ccccc2)NC(=O)N[C@@H](CC(=O)O)c2ccc3c(c2)OCO3)cc1` [(9S,13S)-13-(1,3-benzodioxol-5-yl)-9-[({4-[(2-methylbenzyl)amino]benzyl}amino)carbonyl]-3,11-dioxo-1-phenyl-2-oxa-4,10,12-triazapentadecan-15-oic acid], where the note is “Table 1”, the inhibition at 100 µM is 100% and the half-maximal inhibitory concentration (IC50) is 0.0004 µM.

In the case of `COC(=O)NCCCC[C@H](NC(=O)N[C@@H](CC(=O)O)c1ccc2c(c1)OCO2)C(=O)NCc1ccc(N(Cc2ccccc2C)Cc2ccccc2C)cc1` [(9S,13S)-13-(1,3-benzodioxol-5-yl)-9-[({4-bis(2-methylbenzyl)amino]benzyl}amino)carbonyl]-3,11-dioxo-2-oxa-4,10,12-triazapentadecan-15-oic acid], where the note is “Table 1”, the inhibition at 100 µM was 95% and the IC50 is 1 µM.

On to `COC(=O)NCCCC[C@H](NC(=O)N[C@@H](CC(=O)O)c1ccc2c(c1)OCO2)C(=O)NCc1ccc(OC)c(O)c1` [(9S,13S)-13-(1,3-benzodioxol-5-yl)-9-{[(3-hydroxy-4-methoxybenzyl)amino]carbonyl}-3,11-dioxo-2-oxa-4,10,12-triazapentadecan-15-oic acid], for which, for the setting “Table 1”, the inhibition at 100 µM is 100% and the IC50 is 0.2 µM.

As for `O=C(O)C[C@H](NC(=O)N[C@@H](CCCCNC(=O)OCc1ccccc1)C(=O)NCCc1ccc(O)cc1)c1ccc2c(c1)OCO2` [(9S,13S)-13-(1,3-benzodioxol-5-yl)-9-{[(4-hydroxyphenethyl)amino]carbonyl}-3,11-dioxo-1-phenyl-2-oxa-4,10,12-triazapentadecan-15-oic acid], where the note is “Table 1”, the inhibition at 100 µM was 100% and the IC50 was 2 µM.

Consider `COC(=O)NCCCC[C@H](NC(=O)N[C@@H](CC(=O)O)c1ccc2c(c1)OCO2)C(=O)NCCc1ccc(O)cc1` [(9S,13S)-13-(1,3-benzodioxol-5-yl)-9-{[(4-hydroxyphenethyl)amino]carbonyl}-3,11-dioxo-2-oxa-4,10,12-triazapentadecan-15-oic acid], for which, where the note is “Table 1”, the inhibition at 100 µM was 100% and the half-inhibitory concentration (IC50) was 6 µM.

Regarding `CSCC[C@@H](CSc1ccccc1)NC(=O)N[C@H](CSc1ccccc1)CC(=O)O` [Compound 8, (3S)-3-{[({(1S)-3-(methylsulfanyl)-1-[(phenylsulfanyl)methyl]propyl}amino)carbonyl]amino}-4-(phenylsulfanyl)butanoic acid], for the setting “Table 1”, the inhibition at 100 µM is 100% and the IC50 was 4 µM.

As for `CCCC[C@@H](CSc1cccc(NCc2ccccc2C)c1)OC(=O)N[C@@H](CC(=O)O)c1ccc2c(c1)OCO2` [Compound 15, (3S)-3-(1,3-benzodioxol-5-yl)-3-{[({(1S)-1-[({3-[(2-methylbenzyl)amino]phenyl}thio)methyl]pentyl}oxy)carbonyl]amino}propanoic acid], for the setting “Table 1”, the inhibition at 100 µM was 100% and the 50% inhibitory concentration (IC50) is 25 µM.

Turning to `CCCC[C@@H](COCc1cccs1)NC(=O)N[C@@H](CC(=O)O)c1ccc2c(c1)OCO2` [Compound 22, (3S)-3-(1,3-benzodioxol-5-yl)-3-{[({(1S)-1-[(2-thienylmethoxy)methyl]pentyl}amino)carbonyl]amino}propanoic acid], under “Table 1”, the inhibition at 100 µM is 100% and the half-inhibitory concentration (IC50) is 1.5 µM.

Take `O=C(O)C[C@H](NC(=O)N[C@@H](CCCCNC(=O)OCc1ccccc1)C(=O)NCc1cccs1)c1ccc2c(c1)OCO2` [Compound 27, (9S,13S)-13-(1,3-benzodioxol-5-yl)-3,11-dioxo-1-phenyl-9-{[(2-thienylmethyl)amino]carbonyl}-2-oxa-4,10,12-triazapentadecan-15-oic acid]: under “Table 1”, the inhibition at 100 µM is 100% and the concentration for half-maximal inhibition (IC50) was 0.2 µM.

With `CCCC[C@H](NC(=O)N[C@@H](CC(=O)O)c1ccc2c(c1)OCO2)C(=O)NCc1cccs1` [Compound 34, (3S)-3-(1,3-benzodioxol-5-yl)-3-([((1S)-1-[(2-thienylmethyl)amino]carbonylpentyl)amino]carbonylamino)propanoic acid], where the note is “Table 2”, the 50% inhibitory concentration (IC50) was 0.25 µM.

As for `CCCC[C@H](NC(=O)N[C@@H](CC(=O)O)c1ccc2c(c1)OCO2)C(=O)Nc1ccccc1C(C)=O` [Compound 35, (3S)-3-(1,3-benzodioxol-5-yl)-3-([((1S)-1-[(2-acetylphenyl)amino]carbonylpentyl)amino]carbonylamino)propanoic acid], where the note is “Table 2”, the IC50 was 0.35 µM.

In the case of `CCCC[C@H](NC(=O)N[C@@H](CC(=O)O)c1ccc2c(c1)OCO2)C(=O)Nc1ccc(C(C)=O)cc1` [Compound 36, 3-(3S)-3-(1,3-benzodioxol-5-yl)-3-([((1S)-1-[(4-acetylphenyl)amino]carbonylpentyl)amino]carbonylamino)propanoic acid], the IC50 (Table 2) is 1 µM.

As for `CCCC[C@H](NC(=O)N[C@@H](CC(=O)O)c1ccc2c(c1)OCO2)C(=O)NCc1ccc(NCc2cccs2)cc1` [Compound 37, 3-(3S)-3-(1,3-benzodioxol-5-yl)-3-([((1S)-1-[(4-(2-thienylmethyl)aminobenzyl)amino]carbonylpentyl)amino]carbonylamino)propanoic acid], the 50% inhibitory concentration (IC50) (Table 2) is 0.03 µM.

Turning to `CCCC[C@H](NC(=O)N[C@@H](CC(=O)O)c1ccc2c(c1)OCO2)C(=O)NCc1ccc(OCc2ccccc2C)c(OC)c1` [Compound 38, 3-(3S)-3-(1,3-benzodioxol-5-yl)-3-([((1S)-1-[(4-(2-methylbenzyloxy)-3-methoxybenzyl)amino]carbonylpentyl)amino]carbonylamino)propanoic acid], where the note is “Table 2”, the IC50 was 0.02 µM.

For `CCCC[C@H](NC(=O)N[C@@H](CC(=O)O)c1ccc2c(c1)OCO2)C(=O)NCc1ccc(NCc2ccccc2C)cc1` [Compound 39], the IC50 (Table 2) was 0.05 µM.

For the compound `CCCC[C@H](NC(=O)N[C@@H](CC(=O)O)c1ccc2c(c1)OCO2)C(=O)NCc1ccc(NCc2nccs2)cc1` [Compound 40, 3(3S)-3-(1,3-benzodioxol-5-yl)-3-([((1S)-1-[(4-(1,3-thiazol-2-ylmethyl)aminobenzyl)amino]carbonylpentyl)amino]carbonylamino)propanoic acid], where the note is “Table 2”, the IC50 was 0.12 µM.

As to `CCCC[C@H](NC(=O)N[C@@H](CC(=O)O)c1ccc2c(c1)OCO2)C(=O)NCc1ccc(NCc2ccc(C)s2)cc1` [Compound 41, 3(3S)-3-(1,3-benzodioxol-5-yl)-3-([((1S)-1-[(4-(5-methyl-2-thienylmethyl)aminobenzyl)amino]carbonylpentyl)amino]carbonylamino)propanoic acid], the IC50 (Table 2) is 0.1 µM.

In the case of `CCCC[C@H](NC(=O)N[C@@H](CC(=O)O)c1ccc2c(c1)OCO2)C(=O)NCc1ccc(NS(=O)(=O)c2cccs2)cc1` [Compound 42, 3(3S)-3-(1,3-benzodioxol-5-yl)-3-([((1S)-1-[(4-(2-thienylsulfonamido)benzyl)amino]carbonylpentyl)amino]carbonylamino)propanoic acid], the IC50 (Table 2) is 0.06 µM.

Regarding `CCCC[C@H](NC(=O)N[C@@H](CC(=O)O)c1ccc2c(c1)OCO2)C(=O)NCc1ccc(NCc2cccc(C)n2)cc1` [Compound 43], the IC50 (Table 2) was 0.12 µM.

`O=C(O)C[C@H](NC(=O)N[C@@H](CC(=O)O)c1ccc2c(c1)OCO2)c1ccc2c(c1)OCO2` [N,N'-bis[(1S)-1-(1,3-benzodioxol-5-yl)-2-carboxyethyl]urea]: under “Table 1”, the inhibition at 100 µM is 99% and the IC50 was 7 µM.
